Assay results: patent publication US20180037568A1, “MODULATORS OF METHYL MODIFYING ENZYMES, COMPOSITIONS AND USES THEREOF” (Constellation Pharmaceuticals, Inc., priority 2015, published 2018)
Read-outs that look alike come from different tables or passages of the source.

Key:
PRC2 containing wt EZH2 = target: T1, PRC2 containing wt EZH2 (Homo sapiens, UniProt Q15910); assay: EZH2 pep BSA Brij 4.0 LowE (IC50): 3H-SAM incorporation into biotinylated H3 peptide; type: biochemical
T1 construct: made in house
Description: EZH2 Pep BSA Brij 4.0 LowE (IC50):
Compound potencies were assessed through incorporation of ^3H-SAM into a biotinylated H3 peptide. Specifically, PRC2 containing wt EZH2 (20 pM), (pentameric complexes prepared in-house) was pre-incubated with ^3H-SAM (0.9 μM), 2 μM H3K27me3 activating peptide (H2N-RKQLATKAAR(Kme3)SAPATGGVKKP-amide) and compounds (as 10 point duplicate dose response titrations in DMSO, final assay 0.8% DMSO (v/v)) for 120 min in 50 mM Tris (pH 8.5), 1 mM DTT, 0.07 mM Brij-35, 0.1% BSA, and 0.8% DMSO in a total volume of 12.5 μl. Reaction was initiated with biotinylated H3 substrate peptide (H2N-RKQLATKAAR(Kme1)SAPATGGVKKP-NTPEGBiot) as a 2 μM stock in 12.5 μl of buffer and allowed to react at room temperature for 5 h. Quenching was accomplished by addition of 20 μl of STOP solution (50 mM Tris (pH 8.5), 200 mM EDTA, 2 mM SAH). 35 μl of the quenched solution was transferred to Streptavidin Flashplates, incubated overnight, washed, and read in a TopCount Reader (Perkin Elmer). IC50s were calculated relative to fully active and no enzyme control wells using non-linear least square four parameter fits.

H3K27me3 mark = assay: H3K27me3 Alpha Hela Assay (AlphaLISA); type: cell-based; details: Hela cells, read-out: EZH2 Cell H3K27me3 Alpha HeLa (EC50 K27me3)
Description: EC50 Measurements for Inhibitors in HeLa Cell Assays
H3K27me3 Alpha Hela Assay (AlphaLISA). Ten different doses of each test compound (in a series of 3-fold dilutions) were plated in duplicate 384-well tissue culture treated plates (Catalog #781080; Greiner Bio One; Monroe, N.C.). Hela cells grown in culture were trypsinized and counted using a Countess® cell counter (Catalog # C10281; Life Technologies, Grand Island, N.Y.). Cell were diluted to 67,000 cells per mL in 10% DMEM (Catalog #10569-010 Life Technologies, Grand Island, N.Y.) and 15 μL (1,000 cells) were plated into each well using the Biotek MicroFlo™ Select Dispenser (BioTek Instruments, Inc. Vermont, USA),) of the 384-well plate. Plates were incubated at 37° C./5% CO2 for 72 hrs. One of the duplicate plates was processed for HeLa assay and the other for viability.
To the plate processed for AlphaLISA was added 5 μL per well Cell-Histone Lysis buffer (1×) (Catalog # AL009F1 Perkin Elmer; Waltham, Mass.) and the plate was incubated at RT for 30 minutes on a plate shaker with low speed (Model#4625-Q Thermo Scientific; Waltham, Mass.). Then, 10 μL per well Histone Extraction buffer (catalog # AL009F2; Perkin Elmer; Waltham, Mass.) was added and the plate further incubated at RT for 20 min on plate shaker with low speed. To each well was then added 10 μL per well of a 5× mix of anti-K27me3 acceptor beads plus Biotinylated anti-Histone H3 (C-ter) Antibody (diluted to 3 nM final) (Catalog #AL118 Perkin Elmer; Waltham, Mass.). Dilution of the acceptor beads and then anti-Histone H3 was with 1× Histone Detection buffer (Catalog # AL009F3 Perkin Elmer; Waltham, Mass.) which was produced diluted from the 10× stock provided. The plate was sealed with an aluminum plate sealer and incubated at 23° C. for 60 min. We then added 10 μL 5× solution of Streptavidin Donor beads (Catalog #6760002 Perkin Elmer; Waltham, Mass.) (20 μg/mL final in 1× Histone Detection Buffer), sealed the plate with Aluminum plate sealer and incubated at 23° C. for 30 min. The plates were then read using an EnVision-Alpha Reader (model #2104 Perkin Elmer; Waltham, Mass.).
Data from both assays was analyzed using Assay Assistant (Constellation Pharmaceuticals In-house product) and Activity Base (IDBS Ltd, Surrey, UK) template. Data files were imported to Assay Assistant and assay conditions were specified. A unique Analysis ID was created and the data files exported to Activity Base. An analysis template was created on Activity Base to measure dose-dependent inhibition of H3K27me3 mark and cell viability respectively. Readout of DMSO wells were used to normalize the data. Resulting curves were fitted using Activity base software Model 205 (IDBS Ltd, Surrey, UK). The data was checked for quality, validated and integrated in excel format using SARview (IDBS Ltd, Surrey, UK).

[1] = EZH2 pep BSA Brij 4.0 LowE (IC50), 20 pM PRC2 wt EZH2, 0.9 μM 3H-SAM, biotinylated H3 peptide substrate, 2 μM H3K27me3 activating peptide
[2] = 20 pM PRC2 wt EZH2, 0.9 μM 3H-SAM, biotinylated H3 peptide substrate, 2 μM H3K27me3 activating peptide; read-out: EZH2 pep BSA Brij 4.0 LowE (IC50)
[3] = read-out: EZH2 pep BSA Brij 4.0 LowE (IC50); 20 pM PRC2 wt EZH2, 0.9 μM 3H-SAM, biotinylated H3 peptide substrate, 2 μM H3K27me3 activating peptide

T1 sequence (Q15910 whole entry): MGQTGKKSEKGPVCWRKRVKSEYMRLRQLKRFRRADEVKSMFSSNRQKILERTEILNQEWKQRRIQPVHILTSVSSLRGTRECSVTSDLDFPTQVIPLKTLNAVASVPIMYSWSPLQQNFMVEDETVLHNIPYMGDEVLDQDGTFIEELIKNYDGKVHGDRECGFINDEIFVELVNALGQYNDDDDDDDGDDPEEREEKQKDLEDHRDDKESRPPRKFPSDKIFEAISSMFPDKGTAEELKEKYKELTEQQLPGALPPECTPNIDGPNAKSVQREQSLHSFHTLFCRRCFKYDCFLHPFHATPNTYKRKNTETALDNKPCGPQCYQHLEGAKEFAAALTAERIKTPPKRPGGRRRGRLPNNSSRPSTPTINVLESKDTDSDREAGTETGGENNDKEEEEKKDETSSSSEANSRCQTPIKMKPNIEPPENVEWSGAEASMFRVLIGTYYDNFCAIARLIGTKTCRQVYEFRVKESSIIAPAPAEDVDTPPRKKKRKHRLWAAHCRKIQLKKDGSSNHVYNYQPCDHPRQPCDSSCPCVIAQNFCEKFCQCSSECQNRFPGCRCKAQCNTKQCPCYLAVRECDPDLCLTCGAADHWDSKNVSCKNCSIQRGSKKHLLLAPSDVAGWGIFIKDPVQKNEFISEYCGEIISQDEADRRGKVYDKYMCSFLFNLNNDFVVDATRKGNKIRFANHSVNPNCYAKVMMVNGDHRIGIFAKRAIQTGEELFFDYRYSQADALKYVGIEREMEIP
T1 sequence (O75530 whole entry partner): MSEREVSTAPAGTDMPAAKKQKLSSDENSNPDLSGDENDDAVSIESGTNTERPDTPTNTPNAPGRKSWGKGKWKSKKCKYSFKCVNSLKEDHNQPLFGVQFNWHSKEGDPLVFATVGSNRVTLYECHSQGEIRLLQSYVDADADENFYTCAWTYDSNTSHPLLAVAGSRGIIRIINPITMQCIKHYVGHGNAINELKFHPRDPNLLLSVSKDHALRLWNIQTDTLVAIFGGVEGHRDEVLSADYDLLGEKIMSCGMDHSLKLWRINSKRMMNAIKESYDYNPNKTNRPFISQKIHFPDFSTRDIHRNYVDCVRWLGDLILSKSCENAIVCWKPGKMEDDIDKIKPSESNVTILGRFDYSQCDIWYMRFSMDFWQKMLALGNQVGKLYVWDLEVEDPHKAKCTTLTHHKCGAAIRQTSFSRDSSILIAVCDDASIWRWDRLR
T1 sequence (Q15022 whole entry partner): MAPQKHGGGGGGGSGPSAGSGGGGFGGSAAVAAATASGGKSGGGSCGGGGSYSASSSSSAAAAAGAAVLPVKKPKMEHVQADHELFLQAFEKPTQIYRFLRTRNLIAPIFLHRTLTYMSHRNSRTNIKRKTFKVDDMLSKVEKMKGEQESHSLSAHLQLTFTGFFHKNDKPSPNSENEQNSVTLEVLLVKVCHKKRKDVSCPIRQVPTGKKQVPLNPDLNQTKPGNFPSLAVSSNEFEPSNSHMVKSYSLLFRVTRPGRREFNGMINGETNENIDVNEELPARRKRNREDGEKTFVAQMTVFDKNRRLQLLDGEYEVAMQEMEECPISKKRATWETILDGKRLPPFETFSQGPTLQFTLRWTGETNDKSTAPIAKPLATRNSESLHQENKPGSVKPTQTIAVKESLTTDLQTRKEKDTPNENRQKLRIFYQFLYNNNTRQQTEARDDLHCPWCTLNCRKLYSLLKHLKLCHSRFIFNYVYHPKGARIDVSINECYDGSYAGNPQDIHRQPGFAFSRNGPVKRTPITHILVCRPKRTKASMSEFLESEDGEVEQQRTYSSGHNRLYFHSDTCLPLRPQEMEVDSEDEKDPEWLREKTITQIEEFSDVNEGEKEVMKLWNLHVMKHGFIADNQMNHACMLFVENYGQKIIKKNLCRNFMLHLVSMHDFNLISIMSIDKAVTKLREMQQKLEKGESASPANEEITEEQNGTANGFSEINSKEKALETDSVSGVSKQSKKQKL
T1 sequence (Q09028 whole entry partner): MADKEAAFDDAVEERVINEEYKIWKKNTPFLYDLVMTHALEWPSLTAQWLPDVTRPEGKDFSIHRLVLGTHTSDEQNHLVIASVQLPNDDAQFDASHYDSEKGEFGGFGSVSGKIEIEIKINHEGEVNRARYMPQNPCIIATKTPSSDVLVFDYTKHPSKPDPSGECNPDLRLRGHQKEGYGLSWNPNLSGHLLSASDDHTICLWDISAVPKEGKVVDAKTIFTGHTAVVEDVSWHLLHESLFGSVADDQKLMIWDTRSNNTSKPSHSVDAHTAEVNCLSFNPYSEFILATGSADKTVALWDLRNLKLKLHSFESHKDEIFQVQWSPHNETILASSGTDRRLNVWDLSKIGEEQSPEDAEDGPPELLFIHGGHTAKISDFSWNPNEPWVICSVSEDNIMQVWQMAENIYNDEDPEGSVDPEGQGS
T1 sequence (Q6ZN18 whole entry partner): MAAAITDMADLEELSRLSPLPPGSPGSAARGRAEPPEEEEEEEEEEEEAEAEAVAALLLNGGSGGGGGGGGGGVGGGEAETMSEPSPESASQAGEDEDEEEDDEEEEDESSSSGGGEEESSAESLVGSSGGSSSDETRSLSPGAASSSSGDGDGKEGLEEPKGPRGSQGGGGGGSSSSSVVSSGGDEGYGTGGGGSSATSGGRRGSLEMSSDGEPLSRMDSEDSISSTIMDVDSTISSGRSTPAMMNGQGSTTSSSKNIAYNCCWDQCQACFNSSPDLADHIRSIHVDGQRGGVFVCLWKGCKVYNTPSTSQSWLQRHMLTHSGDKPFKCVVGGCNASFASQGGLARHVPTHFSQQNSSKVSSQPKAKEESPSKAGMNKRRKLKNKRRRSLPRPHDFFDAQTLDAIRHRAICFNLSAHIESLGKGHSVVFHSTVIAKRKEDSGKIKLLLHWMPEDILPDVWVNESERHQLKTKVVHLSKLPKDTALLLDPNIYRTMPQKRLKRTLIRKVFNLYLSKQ

Row | SMILES | IC50 (PRC2 containing wt EZH2; [1]) | EC50 (H3K27me3 mark; Homo sapiens, HeLa, 72 h) | EC50 (H3K27me3 mark; 72 hrs) | IC50 (PRC2 containing wt EZH2; [2]) | IC50 (PRC2 containing wt EZH2; [3])
1 | CCc1cc(C)[nH]c(=O)c1CNC(=O)c1c(C)n(C(C)C2CCNC(C(F)(F)F)C2)c2ccccc12 (stereo not drawn) [Compound 5, N-((4-ethyl-6-methyl-2-oxo-1,2-dihydropyridin-3-yl)methyl)-2-methyl-1-(1-(2-(trifluoromethyl)piperidin-4-yl)ethyl)-1H-indole-3-carboxamide] | < 100 nM | < 400 nM |  |  | 
2 | COc1cc(C)[nH]c(=O)c1CNC(=O)c1c(C)n(C(C)C2CCN(CC(C)(F)F)C(C)C2)c2ccccc12 (stereo not drawn) [Compound 70] | < 100 nM |  | 400 to 2000 nM |  | 
3 | COc1cc(C)[nH]c(=O)c1CNC(=O)c1c(C)n(C(C)C2CCN(C)C(c3ccc(F)cc3)C2)c2ccccc12 (single isomer, unassigned) [Compound 34, 1-(1-(2-(4-fluorophenyl)-1-methylpiperidin-4-yl)ethyl)-N-((4-methoxy-6-methyl-2-oxo-1,2-dihydropyridin-3-yl)methyl)-2-methyl-1H-indole-3-carboxamide] |  |  | > 2000 nM | 100 to 1000 nM | 
4 | Cc1cc(C)c(CNC(=O)c2c(C)n(C(C)C3CCNC(CC(F)(F)F)C3)c3ccccc23)c(=O)[nH]1 (stereo not drawn) [Compound 84] |  | 400 to 2000 nM |  |  | < 100 nM
5 | COc1cc(C)[nH]c(=O)c1CNC(=O)c1c(C)n(C(C)C2CCN(CC(F)F)C(C)C2)c2ccccc12 (stereo not drawn) [Compound 46] |  |  | < 400 nM |  | < 100 nM
6 | COc1cc(C)[nH]c(=O)c1CNC(=O)c1c(C)n(C(C)C2CCN(CC(C)(F)F)C(C)C2)c2ccccc12 (stereo not drawn) [Compound 72] | 100 to 1000 nM |  | > 2000 nM |  | 
7 | COc1cc(C)[nH]c(=O)c1CNC(=O)c1c(C)n(C(C)C2CCN(C)C(CF)C2)c2ccccc12 (stereo not drawn) [Compound 29, 1-(1-(2-(fluoromethyl)-1-methylpiperidin-4-yl)ethyl)-N-((4-methoxy-6-methyl-2-oxo-1,2-dihydropyridin-3-yl)methyl)-2-methyl-1H-indole-3-carboxamide] | < 100 nM | > 2000 nM |  |  | 
8 | CCCc1cc(C)[nH]c(=O)c1CNC(=O)c1c(C)n(C(C)C2CCNC(C(F)(F)F)C2)c2ccccc12 (stereo not drawn) [Compound 6, 2-methyl-N-((6-methyl-2-oxo-4-propyl-1,2-dihydropyridin-3-yl)methyl)-1-(1-(2-(trifluoromethyl)piperidin-4-yl)ethyl)-1H-indole-3-carboxamide] | < 100 nM | < 400 nM |  |  | 
9 | COc1cc(C)[nH]c(=O)c1CNC(=O)c1c(C)n(C(C)C2CCN(C)C(c3ccc(F)cc3)C2)c2ccccc12 (single isomer, unassigned) [Compound 35, 1-(1-(2-(4-fluorophenyl)-1-methylpiperidin-4-yl)ethyl)-N-((4-methoxy-6-methyl-2-oxo-1,2-dihydropyridin-3-yl)methyl)-2-methyl-1H-indole-3-carboxamide] |  |  | < 400 nM | < 100 nM | 
10 | Cc1cc(C)c(CNC(=O)c2c(C)n(C(C)C3CCN(C)C(C(F)(F)F)C3)c3ccccc23)c(=O)[nH]1 (single isomer, unassigned) [Compound 26, N-((4,6-dimethyl-2-oxo-1,2-dihydropyridin-3-yl)methyl)-2-methyl-1-(1-(1-methyl-2-(trifluoromethyl)piperidin-4-yl)ethyl)-1H-indole-3-carboxamide] |  |  | < 400 nM |  | < 100 nM
11 | COc1cc(C)[nH]c(=O)c1CNC(=O)c1c(C)n(C(C)C2CCN(C)C(CO)C2)c2ccccc12 (stereo not drawn) [Compound 30, 1-(1-(2-(hydroxymethyl)-1-methylpiperidin-4-yl)ethyl)-N-((4-methoxy-6-methyl-2-oxo-1,2-dihydropyridin-3-yl)methyl)-2-methyl-1H-indole-3-carboxamide] | < 100 nM | > 2000 nM |  |  | 
12 | COc1cc(C)[nH]c(=O)c1CNC(=O)c1c(C)n(C(C)C2CCN(C)C(c3cccc(C#N)c3)C2)c2ccccc12 (stereo not drawn) [Compound 95] | < 100 nM | 400 to 2000 nM |  |  | 
13 | COc1cc(C)[nH]c(=O)c1CNC(=O)c1c(C)n(C(C)C2CCN(C)CC2C(F)(F)F)c2ccccc12 (single isomer, unassigned) [Compound 28, N-((4-methoxy-6-methyl-2-oxo-1,2-dihydropyridin-3-yl)methyl)-2-methyl-1-(1-(1-methyl-3-(trifluoromethyl)piperidin-4-yl)ethyl)-1H-indole-3-carboxamide] | < 100 nM |  | > 2000 nM |  | 
14 | COc1cc(C)[nH]c(=O)c1CNC(=O)c1c(C)n(C(C)C2CCNC(CC(F)(F)F)C2)c2ccccc12 (stereo not drawn) [Compound 90] | < 100 nM |  | 400 to 2000 nM |  | 
15 | COc1cc(C)[nH]c(=O)c1CNC(=O)c1c(C)n(C(C)C2CCN(CC(F)F)C(C)C2)c2ccccc12 (stereo not drawn) [Compound 44] | < 100 nM |  | > 2000 nM |  | 
16 | CCC1CC(C(C)n2c(C)c(C(=O)NCc3c(C)cc(C)[nH]c3=O)c3ccccc32)CCN1CC(F)F (stereo not drawn) [Compound 69] |  |  | > 2000 nM |  | < 100 nM
17 | COc1cc(C)[nH]c(=O)c1CNC(=O)c1c(C)n(C(C)C2CCN(CC(C)(F)F)C(C)C2)c2ccccc12 (stereo not drawn) [Compound 73] | < 100 nM |  | < 400 nM |  | 
18 | COc1cc(C)[nH]c(=O)c1CNC(=O)c1c(C)n(C(C)C2CCN(CC(F)(F)F)C(C)C2)c2ccccc12 (stereo not drawn) [Compound 45] | < 100 nM |  | < 400 nM |  | 
19 | COc1cc(C)[nH]c(=O)c1CNC(=O)c1c(C)n(C(C)C2CCNC(c3ccccc3F)C2)c2ccccc12 (stereo not drawn) [Compound 66] |  | 400 to 2000 nM |  |  | < 100 nM
20 | COc1cc(C)[nH]c(=O)c1CNC(=O)c1c(C)n(C(C)C2CCN(C)C(c3cccc(C(=O)O)c3)C2)c2ccccc12 (stereo not drawn) [Compound 97] | < 100 nM |  | > 2000 nM |  | 
21 | CCC1CC(C(C)n2c(C)c(C(=O)NCc3c(C)cc(C)[nH]c3=O)c3ccccc32)CCN1CC(F)F (stereo not drawn) [Compound 71] |  |  | < 400 nM |  | < 100 nM
22 | Cc1cc(C)c(CNC(=O)c2c(C)n(C(C)C3CCNC(C(F)(F)F)C3)c3ccccc23)c(=O)[nH]1 (single isomer, unassigned) [Compound 17, N-((4,6-dimethyl-2-oxo-1,2-dihydropyridin-3-yl)methyl)-2-methyl-1-(1-(2-(trifluoromethyl)piperidin-4-yl)ethyl)-1H-indole-3-carboxamide] | < 100 nM | < 400 nM |  |  | 
23 | Cc1cc(OC(F)F)c(CNC(=O)c2c(C)n(C(C)C3CCNC(C(F)(F)F)C3)c3ccccc23)c(=O)[nH]1 (stereo not drawn) [Compound 7, N-((4-(difluoromethoxy)-6-methyl-2-oxo-1,2-dihydropyridin-3-yl)methyl)-2-methyl-1-(1-(2-(trifluoromethyl)piperidin-4-yl)ethyl)-1H-indole-3-carboxamide] | < 100 nM | < 400 nM |  |  | 
24 | COc1cc(C)[nH]c(=O)c1CNC(=O)c1c(C)n(C(C)C2CCN(C)C(c3cccc(C#N)c3)C2)c2ccccc12 (stereo not drawn) [Compound 96] |  |  | 400 to 2000 nM |  | < 100 nM
